The values that follow come from patent US20260098030A1, “NEGATIVE ALLOSTERIC MODULATORS OF METABOTROPIC GLUTAMATE RECEPTOR 2” (Vanderbilt University, priority 2022, published 2026).

A value given as a limit tells only on which side of the number the result lay.

Assay [1] deals with T1, human mGlu2 (Homo sapiens, UniProt Q14416).
T1 construct: expressed in transfected cells; host or cells: HEK-293 cells stably co-expressing GIRK channels
Kind of assay: mGlu GIRK cell-based thallium flux assay, human mGlu2. As to conditions: HEK-293 cells co-expressing human mGlu2 and GIRK, EC80 glutamate. The method, then: Human embryonic kidney (HEK-293) cell lines stably co-expressing human or rat mGlu2 and G protein-coupled inwardly rectifying potassium (GIRK) channels, or human mGlu3 and GIRK, were used for in vitro evaluation of compound activity in thallium flux assay using a fluorescent thallium indicator dye.
The day before the assay, GIRK cells co-expressing human mGlu3, human or rat mGlu2, as described above, were plated in black-walled, clear-bottomed, amine-coated 384-well plates at a density of 15,000 cells/20 μL/well in the assay medium (glutamine-depleted basal DMEM supplemented with 10% dialyzed FBS, 20 mM HEPES, 1 mM sodium pyruvate). Cells were incubated at 37° C. in the presence of 5% CO2. The next day, assay buffer (Hanks balanced salt solution, 20 mM HEPES, 4.16 mM sodium bicarbonate, pH 7.2) was prepared to dilute compounds and Thallos AM fluorescent dye solution. The 2× Thallos dye solution (final concentration 0.34 μM to the cells) was prepared by mixing the dye stock (2.97 mM in DMSO) to 1:1 with 10% pluronic acid before adding to the assay buffer. Cells were washed with assay buffer using a microplate washer to remove the medium, resulting in 20 μL of buffer remaining in each well. Immediately, 20 μL of 2× Thallos dye solution was added to cells, and incubated for one hour at 25° C. During the cell dye loading incubation period, a 10-point concentration serial dilution of compound was created from a 10 mM DMSO compound stock by performing a 1:3 serial dilution in DMSO using the Bravo liquid handler. The 2× compound plate was generated by transferring 0.24 μL of the diluted compound in each well to a daughter plate using an Echo acoustic liquid handler. This is further diluted in 40 μL assay buffer, resulting in a range from 30 μM to 1.5 nM final concentration in the assay. The agonist plate (5×) was prepared to include EC80 glutamate concentration (a concentration to elicit 80% of a maximally effective glutamate concentration) in thallium buffer (125 mM […], 1 mM magnesium sulfate, 1.8 mM calcium sulfate, 5 mM glucose, 10 mM HEPES, pH 7.2, 12.5 mM thallium sulfate).
After dye-loading, cell plates were washed with assay buffer to remove excess extracellular dye using a microplate washer, resulting in 20 μL of buffer remaining in each well. After a ten-minute equilibration period, cell, compound and agonist plates were loaded into a Hamamatsu μCell kinetic imaging plate reader equipped with liquid handler to monitor fluorescence changes at 480 nm excitation and 540 nm emission settings. Briefly, after collection of baseline fluorescence, 20 μL of compound was added and incubated for two minutes and twenty seconds. This is immediately followed by adding 10 μL of glutamate-thallium buffer to the wells containing compound. The fluorescent signal was monitored an additional 2.5 minutes after the glutamate addition. Multiple reference wells containing no compound received either no glutamate (for a baseline reference), EC80 glutamate, or ECmax glutamate (for normalization to maximum response). Fluorescence was measured throughout the experiment at a frequency of 1 measurement per every 2 seconds before the glutamate addition and a frequency of 1 measurement per every 1 second after the glutamate addition. Each compound concentration series occurred one time in each plate, and replicates from two or three plates were used in each experimental run. Thallium solutions were handled and disposed of according to guidelines from the Vanderbilt University Chemical Safety department.
Data were normalized using a static ratio function (F/F0) by dividing every fluorescent measurement by the initial fluorescent value for the corresponding well. The increase in signal resulting from the glutamate/thallium addition of the second add was measured by determining the slope from 3 seconds to 13 seconds after the addition. […]

In assay [2] the target is T2, rat mGlu2 (Rattus norvegicus, UniProt P31421).
T2 construct: expressed in transfected cells; host or cells: HEK-293 cells stably co-expressing GIRK channels
T2 sequence (P31421 19-872): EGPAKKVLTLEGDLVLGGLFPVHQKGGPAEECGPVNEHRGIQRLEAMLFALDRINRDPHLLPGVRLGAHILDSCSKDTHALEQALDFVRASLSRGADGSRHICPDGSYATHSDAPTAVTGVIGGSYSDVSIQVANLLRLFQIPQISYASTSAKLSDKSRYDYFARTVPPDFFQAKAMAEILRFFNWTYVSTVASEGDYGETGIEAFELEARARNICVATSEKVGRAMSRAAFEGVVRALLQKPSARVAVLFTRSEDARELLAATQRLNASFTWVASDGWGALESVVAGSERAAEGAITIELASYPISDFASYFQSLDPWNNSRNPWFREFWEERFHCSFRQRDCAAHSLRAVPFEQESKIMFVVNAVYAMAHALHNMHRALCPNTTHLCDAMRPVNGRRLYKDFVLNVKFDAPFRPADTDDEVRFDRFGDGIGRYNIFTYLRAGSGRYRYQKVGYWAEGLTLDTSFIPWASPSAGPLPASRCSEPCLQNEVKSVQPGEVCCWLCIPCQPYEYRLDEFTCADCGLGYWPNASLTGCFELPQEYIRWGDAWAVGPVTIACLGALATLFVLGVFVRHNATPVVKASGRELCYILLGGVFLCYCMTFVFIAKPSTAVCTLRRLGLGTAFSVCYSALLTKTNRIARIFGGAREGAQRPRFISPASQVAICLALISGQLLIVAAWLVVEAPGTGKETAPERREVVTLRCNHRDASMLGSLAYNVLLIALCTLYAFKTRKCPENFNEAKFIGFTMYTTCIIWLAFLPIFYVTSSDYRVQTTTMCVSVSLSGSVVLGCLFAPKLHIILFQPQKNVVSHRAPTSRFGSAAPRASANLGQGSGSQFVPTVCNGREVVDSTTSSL
Description: mGlu GIRK cell-based thallium flux assay, rat mGlu2. As to conditions: HEK-293 cells co-expressing rat mGlu2 and GIRK, EC80 glutamate. Put shortly: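 HEK-293 cells stably co-expressing GIRK with human mGlu3, human mGlu2 or rat mGlu2 were loaded 1 h at 25° C with Thallos dye, then given compound (30 μM to 1.5 nM final, 10-point) for 2 min 20 s before EC80 glutamate plus thallium. Baseline-corrected fluorescence slope, normalized to ECmax glutamate, fitted to 4-parameter logistic for IC50.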

T1 sequence (Q14416 19-872): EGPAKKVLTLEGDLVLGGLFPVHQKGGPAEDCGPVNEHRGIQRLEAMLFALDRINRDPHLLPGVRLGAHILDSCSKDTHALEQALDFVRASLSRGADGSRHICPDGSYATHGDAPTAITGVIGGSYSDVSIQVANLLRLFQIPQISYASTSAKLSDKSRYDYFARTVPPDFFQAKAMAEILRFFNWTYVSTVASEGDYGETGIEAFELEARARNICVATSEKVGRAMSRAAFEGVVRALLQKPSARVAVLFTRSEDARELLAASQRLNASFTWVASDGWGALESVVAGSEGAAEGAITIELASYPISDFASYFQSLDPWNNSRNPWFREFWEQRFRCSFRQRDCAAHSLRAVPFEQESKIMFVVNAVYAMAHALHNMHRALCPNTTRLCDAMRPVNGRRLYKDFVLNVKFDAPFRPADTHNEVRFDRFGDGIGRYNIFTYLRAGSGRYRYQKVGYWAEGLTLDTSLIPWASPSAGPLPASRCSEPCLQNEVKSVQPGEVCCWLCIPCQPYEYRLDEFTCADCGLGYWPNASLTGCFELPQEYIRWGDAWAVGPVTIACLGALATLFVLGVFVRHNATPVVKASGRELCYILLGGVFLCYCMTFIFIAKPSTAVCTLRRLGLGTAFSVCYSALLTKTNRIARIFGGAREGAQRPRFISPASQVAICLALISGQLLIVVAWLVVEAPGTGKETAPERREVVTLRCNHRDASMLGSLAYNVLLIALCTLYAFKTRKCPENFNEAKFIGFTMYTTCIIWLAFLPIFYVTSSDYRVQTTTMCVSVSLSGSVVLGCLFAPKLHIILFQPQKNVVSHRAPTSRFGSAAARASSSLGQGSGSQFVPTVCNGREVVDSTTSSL

For the molecule `O=C1NCc2cc(-c3cnco3)c(-c3ccc(F)cc3)cc21` [Compound 2, 6-(4-fluorophenyl)-5-(oxazol-5-yl)isoindolin-1-one], the IC50 – broadly, the concentration that inhibits the measured activity by half – in assay [1] is 5840 nM; in assay [2] it was greater than 10 µM. On the same counts, the results for `O=C1NCc2cc(-c3ccncc3)c(-c3ccc(F)cc3)cc21` [Compound 4, 6-(4-fluorophenyl)-5-(pyridin-4-yl)isoindolin-1-one] are greater than 10000 nM and greater than 10 µM. For `Cn1cc(-c2cc3c(cc2-c2ccc(F)cc2)C(=O)NC3)cn1` [Compound 1, 6-(4-fluorophenyl)-5-(1-methyl-1H-pyrazol-4-yl)isoindolin-1-one], the IC50 is greater than 10000 nM in assay [1] and greater than 10 µM in assay [2]. In assay [1], `COc1cc(F)c(-c2cc3c(cc2-c2cccc(C#N)c2)CNC3=O)cc1F` [Compound 174, 3-(6-(2,5-difluoro-4-methoxyphenyl)-1-oxoisoindolin-5-yl)benzonitrile] yielded an IC50 greater than 10000 nM. Same read-out and setting: in the case of `CC(C)n1cc(-c2cc3c(cc2-c2ccc(F)cc2F)C(=O)NC3)cn1` [Compound 133, 6-(2,4-difluorophenyl)-5-(1-isopropyl-1H-pyrazol-4-yl)isoindolin-1-one] it was 1820 nM. The same measure, in the same setting: in the case of `Cn1nncc1-c1cccc(-c2cc3c(cc2-c2ccc(F)cc2F)C(=O)NC3)c1` [Compound 151, 6-(2,4-difluorophenyl)-5-(3-(1-methyl-1H-1,2,3-triazol-5-yl)phenyl)isoindolin-1-one] it was 857 nM; in that of `[2H]C([2H])(C)n1nncc1-c1cccc(-c2cc3c(cc2-c2ccc(F)cc2F)C(=O)NC3)c1` [Compound 153, 6-(2,4-difluorophenyl)-5-(3-(1-(ethyl-1,1-d2)-1H-1,2,3-triazol-5-yl)phenyl)isoindolin-1-one], 727 nM.

Consider `O=C1NCc2cc(-c3cnn(CC4CC4)c3)c(-c3ccc(F)cc3F)cc21` [Compound 132, 5-(1-(cyclopropylmethyl)-1H-pyrazol-4-yl)-6-(2,4-difluorophenyl)isoindolin-1-one], for which the IC50 in assay [1] stood at 529 nM. Same read-out and setting: in the case of `CN1CCN(c2ccccc2-c2cc3c(cc2-c2ccc(F)cc2F)C(=O)NC3)CC1` [Compound 150, 6-(2,4-difluorophenyl)-5-(2-(4-methylpiperazin-1-yl)phenyl)isoindolin-1-one] it was greater than 10000 nM. For the molecule `[2H]C([2H])(c1cc2c(cc1-c1ccc(F)cc1F)C(=O)NC2)C([2H])([2H])c1ccnn1C` [Compound A6, 6-(2,4-difluorophenyl)-5-(2-(1-methyl-1H-pyrazol-5-yl)ethyl-1,1,2,2-d4)isoindolin-1-one], the IC50 in assay [1] turned out to be 287 nM.

Consider `Cn1cc(-c2cc3c(cc2-c2ccc(F)cc2F)C(=O)NC3)cc1C#N` [Compound 125, 4-(6-(2,4-difluorophenyl)-1-oxoisoindolin-5-yl)-1-methyl-1H-pyrrole-2-carbonitrile], for which the IC50 in assay [1] stood at 1140 nM. Consider `N#Cc1cccc(-c2cc3c(cc2-c2cccc(C#N)c2F)C(=O)NC3)c1` [Compound 183, 3-(6-(3-cyanophenyl)-3-oxoisoindolin-5-yl)-2-fluorobenzonitrile], for which, in assay [1], the IC50 is greater than 10000 nM. The same measure, in the same setting: in the case of `CCn1cc(-c2cc3c(cc2-c2ccc(F)cc2F)C(=O)NC3)c(C(F)(F)F)n1` [Compound 129, 6-(2,4-difluorophcnyl)-5-(1-cthyl-3-(trifluoromethyl)-1H-pyrazol-4-yl)isoindolin-1-one] it was 767 nM; in that of `CC(C)NC(=O)c1cccc(-c2cc3c(cc2-c2ccc(F)cc2F)C(=O)NC3)c1` [Compound 118, 3-(6-(2,4-difluorophenyl)-1-oxoisoindolin-5-yl)-N-isopropylbenzamide], 1990 nM; in that of `N#Cc1cccc(-c2cc3c(cc2-c2cc(C(F)(F)F)ccc2F)C(=O)NC3)c1` [Compound 180, 3-(6-(2-fluoro-5-(trifluoromethyl)phenyl)-1-oxoisoindolin-5-yl)benzonitrile], greater than 10000 nM. Still for that read-out and setting: in the case of `N#Cc1cccc(-c2cc3c(cc2-c2ccc(F)c(F)c2F)C(=O)NC3)c1` [Compound 139, 3-(1-oxo-6-(2,3,4-trifluorophenyl)isoindolin-5-yl)benzonitrile] it was 728 nM. Consider `N#Cc1cccc(-c2cc3c(cc2-c2ccc(C#N)cc2F)C(=O)NC3)c1` [Compound 138, 4-(6-(3-cyanophenyl)-3-oxoisoindolin-5-yl)-3-fluorobenzonitrile], for which the IC50 in assay [1] came to 537 nM. This IC50 and that of the molecule before are within 1.5-fold of each other. Still for that read-out and setting: in the case of `N#Cc1cccc(-c2cc3c(cc2-c2ccc(C#N)c(C(F)(F)F)c2)C(=O)NC3)c1` [Compound 179, 4-(6-(3-cyanophenyl)-3-oxoisoindolin-5-yl)-2-(trifluoromethyl)benzonitrile] it was greater than 10000 nM; in that of `N#Cc1cccc(-c2cc3c(cc2-c2ccc(C#N)c(F)c2)C(=O)NC3)c1` [Compound 167, 4-(6-(3-cyanophenyl)-3-oxoisoindolin-5-yl)-2-fluorobenzonitrile], greater than 10000 nM. Still for that read-out and setting: in the case of `COc1ccc(-c2cc3c(cc2-c2cccc(C#N)c2)CNC3=O)cc1C#N` [Compound 172, 5-(6-(3-cyanophenyl)-3-oxoisoindolin-5-yl)-2-methoxybenzonitrile] it was greater than 10000 nM; in that of `Cn1nccc1CCc1cc2c(cc1-c1ccc(F)cc1F)C(=O)NC2` [Compound A7, 6-(2,4-difluorophenyl)-5-(2-(1-methyl-1H-pyrazol-5-yl)ethyl)isoindolin-1-one], 208 nM. On the same count and under the same terms, in the case of `[2H]C([2H])(c1ccn(C)n1)C([2H])([2H])c1cc2c(cc1-c1ccc(F)cc1F)C(=O)NC2` [Compound A3, 6-(2,4-difluorophenyl)-5-(2-(1-methyl-1H-pyrazol-3-yl)ethyl-1,1,2,2-d4)isoindolin-1-one] it was 218 nM; in that of `O=C1NCc2cc(CCc3cncnc3)c(-c3ccc(F)cc3F)cc21` [Compound A2, 6-(2,4-difluorophenyl)-5-(2-(pyrimidin-5-yl)ethyl)isoindolin-1-one], 667 nM. In assay [1], `N#Cc1cccc(-c2cc3c(cc2-c2ccc(F)cc2C#N)C(=O)NC3)c1` [Compound 141, 2-(6-(3-cyanophenyl)-3-oxoisoindolin-5-yl)-5-fluorobenzonitrile] came in with an IC50 of 220 nM.

Consider `Cc1noc(C)c1-c1cc2c(cc1-c1ccc(F)cc1F)C(=O)NC2` [Compound 126, 6-(2,4-difluorophenyl)-5-(3,5-dimethylisoxazol-4-yl)isoindolin-1-one], for which, in assay [1], the IC50 is greater than 10000 nM. The same measure, in the same setting: in the case of `O=C1NCc2cc(-c3cnc(Cl)n3C3CCCCO3)c(-c3ccc(F)cc3F)cc21` (centres unmarked) [Compound 148, 5-(2-chloro-1-(tetrahydro-2H-pyran-2-yl)-1H-imidazol-5-yl)-6-(2,4-difluorophenyl)isoindolin-1-one] it was 454 nM; in that of `COc1ccc(F)c(-c2cc3c(cc2-c2cccc(C#N)c2)CNC3=O)c1` [Compound 170, 3-(6-(2-fluoro-5-methoxyphenyl)-1-oxoisoindolin-5-yl)benzonitrile], greater than 10000 nM; in that of `COc1ccc(-c2cc3c(cc2-c2cccc(C#N)c2)CNC3=O)c(F)c1` [Compound 157, 3-(6-(2-fluoro-4-methoxyphenyl)-1-oxoisoindolin-5-yl)benzonitrile], 736 nM. Same read-out and setting: in the case of `N#Cc1cccc(-c2cc3c(cc2-c2ccc(OC(F)F)cc2F)C(=O)NC3)c1` [Compound 162, 3-(6-(4-(difluoromethoxy)-2-fluorophenyl)-1-oxoisoindolin-5-yl)benzonitrile] it was 891 nM.
